These results are taken from patent publication US4150029A, “3-Aryl 2-oxazolidinones, their process of preparation and their therapeutical application” (Delalande S.A., priority 1976, dated 1979).

Format in all cases: in vivo
The test system of test [1] is ptosis observed one hour after an intravenous injection of reserpine. The experiment in a line: Test B: antagonism of reserpine-induced ptosis in the mouse. Conditions: po, 1 h, p.o., reserpine 2 mg/kg i.v., read-out: Test B 50 DE. Here is the method:
Antagonism in relation to ptosis observed one hour after an intravenous injection (2 mg/kg) of reserpine was given to a mouse, according to the mode of operation described by GOURET C. and THOMAS J. in J. Pharmacol. (PARIS), (1973), 4, 401.

The test system of test [2] is pontogeniculo-occipital points (P.G.O.) caused by reserpine. Description: Test C: diminution in density of reserpine-induced pontogeniculo-occipital (P.G.O.) points in the cat. The note with it: Felis catus, po, reserpine 0.5 mg/kg, read-out: Test C 50 DE. The protocol:
Diminution in the density of pontogeniculo-occipital points (P.G.O.) caused by injecting a cat with 0.5 mg/kg of reserpine, according to the mode of operation described by COSTON A. and GOURET C. in J. Pharmacol. (PARIS), (1976), 7, 409.

For test [3], the system named is generalised trembling caused by an intraperitoneal injection of dl-5-hydroxytryptophane. Description: Test A: potentiation of generalised trembling caused by dl-5-hydroxytryptophane in the mouse. Conditions: po, read-out: Test A 50 DE. The protocol:
Potentiation in a mouse of generalised trembling caused by an intraperitoneal injection (200 mg/kg) of dl-5-hydroxytryptophane, according to the mode of operation described by GOURET C. and RAYNAUD G. in the J. Pharmacol. (PARIS), (1974), 5, 231.

Setting [4] is: mouse, p.o., dl-5-hydroxytryptophane 200 mg/kg i.p.

Each structure is given as a SMILES string. Read-outs that look alike come from different tables or passages of the source.

For the compound `O=C1OC(CO)CN1c1cccc([N+](=O)[O-])c1` (stereo not drawn) [compound 740511, 5-hydroxymethyl-3-metanitrophenyl-2 oxazolidinone], the ED50 in test [1] worked out at 17 mg/kg; in test [2], 40 mg/kg; in test [3] (setting [4]), 55 mg/kg.

For the compound `CCc1cccc(N2CC(CO)OC2=O)c1` (stereo not drawn) [compound 740512], the ED50 in test [1] stood at 32 mg/kg; in test [2] it was 50 mg/kg; in test [3] (setting [4]), 68 mg/kg.

On to `Cc1ccc(N2CC(CO)OC2=O)cc1C` (stereo not drawn) [compound 750341], for which the ED50 in test [1] came to 41 mg/kg; in test [2] it was 22 mg/kg; in test [3] (setting [4]), 100 mg/kg.

In the case of `O=C1OC(CO)CN1c1cccc(Br)c1` (stereo not drawn) [compound 750710], the ED50 amounted to 100 mg/kg in test [1], 14 mg/kg in test [2] and 62 mg/kg in test [3] (setting [4]).

As to `CCOc1ccc(N2CC(COC(=O)NC)OC2=O)cc1` (stereo not drawn) [compound 760104], the ED50 is 44 mg/kg in test [1], > 50 mg/kg in test [2] and 48 mg/kg in test [3] (Mus musculus).

For `CC(C)Oc1ccc(N2CC(CO)OC2=O)cc1` (stereo not drawn) [compound 760116], the ED50 in test [1] was 50 mg/kg; in test [2] it was 15 mg/kg; in test [3] (setting [4]), 60 mg/kg.

With `CN(C)c1ccc(N2CC(CO)OC2=O)cc1` (stereo not drawn) [compound 760133], the ED50 came out at 7.2 mg/kg in test [1], 4.5 mg/kg in test [2] and 11 mg/kg in test [3] (setting [4]).

With `CCCOc1ccc(N2CC(CO)OC2=O)cc1` (stereo not drawn) [compound 760303], the ED50 was 14 mg/kg in test [1], 6.9 mg/kg in test [2] and 9 mg/kg in test [3] (setting [4]).

Consider `C=CCOc1ccc(N2CC(CO)OC2=O)cc1` (stereo not drawn) [compound 760306], for which the ED50 was 29 mg/kg in test [1], 2.5 mg/kg in test [2] and 14 mg/kg in test [3] (setting [4]).

For `C#CCOc1ccc(N2CC(CO)OC2=O)cc1` (stereo not drawn) [compound 760307], the ED50 in test [1] amounted to 14 mg/kg; in test [2], 5 mg/kg; in test [3] (setting [4]), 8 mg/kg.

Take `CCN(CC)c1ccc(N2CC(CO)OC2=O)cc1` (stereo not drawn) [compound 760311]: the ED50 is 32 mg/kg in test [1], 9 mg/kg in test [2] and 27 mg/kg in test [3] (setting [4]).

With `O=C1OC(CO)CN1c1ccc(OC2CCCCC2)cc1` (stereo not drawn) [compound 760314], the ED50 in test [1] was found to be 18 mg/kg; in test [2] it was 12 mg/kg; in test [3] (setting [4]), 19 mg/kg.

Take `O=C1OC(CO)CN1c1ccc(OCCc2ccccc2)cc1` (stereo not drawn) [compound 760317]: the values for the ED50 in test [1], in test [2] and in test [3] (setting [4]) were 17 mg/kg, 45 mg/kg and 25 mg/kg, respectively.

In the case of `O=C1OC(CO)CN1c1ccc(OCc2ccc(Cl)cc2)cc1` (stereo not drawn) [compound 760337], the ED50 in test [1] was 5 mg/kg; in test [2], 120 mg/kg; in test [3] (setting [4]), 6 mg/kg.

Regarding `CN(Cc1ccccc1)c1ccc(N2CC(CO)OC2=O)cc1` (stereo not drawn) [compound 760375, 5-hydroxymethyl 3-p-N-benzyl N-methylaminophenyl 2-oxazolidinone], the ED50 in test [1] turned out to be 28 mg/kg; in test [2] it was 160 mg/kg; in test [3] (setting [4]), 39 mg/kg.

As to `CNc1ccc(N2CC(CO)OC2=O)cc1` (stereo not drawn) [compound 760395, 5-hydroxymethyl 3-p-N-methylaminophenyl 2-oxazolidinone], the ED50 in test [1] turned out to be 28 mg/kg; in test [2], 160 mg/kg; in test [3] (setting [4]), 39 mg/kg.

Consider `CCCCCOc1ccc(N2CC(CO)OC2=O)cc1` (stereo not drawn) [compound 760396], for which the figures for the ED50 in test [1], in test [2] and in test [3] (setting [4]) were 1.4 mg/kg, 20 mg/kg and 12 mg/kg, respectively.

Regarding `CNC(=O)OCC1CN(c2ccc(OCc3ccccc3)cc2)C(=O)O1` (stereo not drawn) [compound 760409], the ED50 in test [1] is 7 mg/kg; in test [2], > 50 mg/kg; in test [3] (Mus musculus), 100 mg/kg.

Take `CC(C)COc1ccc(N2CC(CO)OC2=O)cc1` (stereo not drawn) [compound 760414]: the ED50 came out at 3 mg/kg in test [1], 5.5 mg/kg in test [2] and 13 mg/kg in test [3] (setting [4]).

Regarding `O=C1OC(CO)CN1c1ccc(OCc2ccc(F)cc2)cc1` (stereo not drawn) [compound 760432], the results for the ED50 in test [1], in test [2] and in test [3] (setting [4]) were 2 mg/kg, 24 mg/kg and 3.8 mg/kg, respectively.

Turning to `O=C1OC(CO)CN1c1ccc(OCc2cccc(F)c2)cc1` (stereo not drawn) [compound 760453], the ED50 in test [1] was determined as 7 mg/kg; in test [2], 11.6 mg/kg; in test [3] (setting [4]) it was 5.5 mg/kg.

`CCSc1ccc(N2CC(CO)OC2=O)cc1` (stereo not drawn) [compound 760466]: the values for the ED50 in test [1], in test [2] and in test [3] (setting [4]) were 32 mg/kg, 8.25 mg/kg and 40 mg/kg, respectively.

As for `CCCCSc1ccc(N2CC(CO)OC2=O)cc1` (stereo not drawn) [compound 760473], the ED50 in test [1] is 22 mg/kg; in test [2], 11.5 mg/kg; in test [3] (setting [4]) it was 41 mg/kg.

For `O=C1OC(CO)CN1c1ccc(N2CCCC2)cc1` (stereo not drawn) [compound 760474], the ED50 came to 68 mg/kg in test [1], 14 mg/kg in test [2] and 42 mg/kg in test [3] (setting [4]).

As for `Cc1cccc(COc2ccc(N3CC(CO)OC3=O)cc2)c1` (stereo not drawn) [compound 760533], the values for the ED50 in test [1], in test [2] and in test [3] (setting [4]) were 54 mg/kg, 51 mg/kg and 41 mg/kg, respectively.

Take `C=C(C)COc1ccc(N2CC(CO)OC2=O)cc1` (stereo not drawn) [compound 760535]: the ED50 in test [1] came out at 50 mg/kg; in test [2], 5.1 mg/kg; in test [3] (setting [4]), 28 mg/kg.

Turning to `C=CCCOc1ccc(N2CC(CO)OC2=O)cc1` (stereo not drawn) [compound 760536], the ED50 worked out at 15 mg/kg in test [1], 6.3 mg/kg in test [2] and 8.6 mg/kg in test [3] (setting [4]).

With `Cc1ccccc1COc1ccc(N2CC(CO)OC2=O)cc1` (stereo not drawn) [compound 760537], the ED50 in test [1] is 17 mg/kg; in test [2], 37.5 mg/kg; in test [3] (setting [4]) it was 35 mg/kg.

For the compound `O=C1OC(CO)CN1c1ccc(OCc2cccc(Cl)c2)cc1` (stereo not drawn) [compound 760548], the ED50 in test [1] was 3.4 mg/kg; in test [2] it was 33.5 mg/kg; in test [3] (setting [4]), 4.4 mg/kg.

With `CCCCCCOc1ccc(N2CC(CO)OC2=O)cc1` (stereo not drawn) [compound 760549], the ED50 amounted to 11 mg/kg in test [1], 85 mg/kg in test [2] and 26 mg/kg in test [3] (setting [4]).

As for `O=C1OC(CO)CN1c1ccc(OCc2cccc(C(F)(F)F)c2)cc1` (stereo not drawn) [compound 760556], the ED50 in test [1] was determined as 3.2 mg/kg; in test [2] it was 14.1 mg/kg; in test [3] (setting [4]), 5 mg/kg.

In the case of `O=C1OC(CO)CN1c1ccc(OCc2ccc(Br)cc2)cc1` (stereo not drawn) [compound 760574], the ED50 in test [1] is 22 mg/kg; in test [2], > 50 mg/kg; in test [3] (setting [4]), 21 mg/kg.

Consider `CCCSc1ccc(N2CC(CO)OC2=O)cc1` (stereo not drawn) [compound 760600], for which the figures for the ED50 in test [1], in test [2] and in test [3] (setting [4]) were 15.4 mg/kg, 6.26 mg/kg and 19 mg/kg, respectively.

Take `O=C1OC(CO)CN1c1ccc(SC2CCCCC2)cc1` (stereo not drawn) [compound 760621]: the ED50 amounted to 42 mg/kg in test [1], 40 mg/kg in test [2] and 100 mg/kg in test [3] (setting [4]).

As to `O=C1OC(CO)CN1c1ccc(OCc2ccc([N+](=O)[O-])cc2)cc1` (stereo not drawn) [compound 760622], the ED50 amounted to 2.1 mg/kg in test [1], 40 mg/kg in test [2] and 5.5 mg/kg in test [3] (setting [4]).

`CC(C)=CCOc1ccc(N2CC(CO)OC2=O)cc1` (stereo not drawn) [compound 760650]: the ED50 in test [1] was 3.4 mg/kg; in test [2] it was 7.03 mg/kg; in test [3] (setting [4]), 25.5 mg/kg.

As for `N#CCOc1ccc(N2CC(CO)OC2=O)cc1` (stereo not drawn) [compound 760651, 5-hydroxymethyl 3-p-cyanomethyloxyphenyl 2-oxazolidinone], the ED50 in test [1] stood at 2.5 mg/kg; in test [2], 1.5 mg/kg; in test [3] (setting [4]) it was 5.5 mg/kg.
